Measured values taken from EPA's ToxValDB 9.5.

System: Rattus norvegicus
Settings: short-term, duration: 28 days, oral, gavage, Sprague-Dawley

Structure (SMILES): O=S(=O)([O-])C(F)(F)C(F)(F)C(F)(F)C(F)(F)C(F)(F)C(F)(F)F.[K+] [Potassium perfluorohexanesulfonate]
- NOEL (F, Clinical chemistry_Alanine aminotransferase): 50 mg/kg-day
- NOEL (F, Clinical chemistry_Albumin): 50 mg/kg-day
- NOEL (F, Clinical chemistry_Albumin/globulin ratio): 50 mg/kg-day
- NOEL (F, Clinical chemistry_Alkaline phosphatase): 50 mg/kg-day
- NOEL (F, Clinical chemistry_Aspartate aminotransferase): 50 mg/kg-day
- NOEL (F, Clinical chemistry_Cholesterol): 50 mg/kg-day
- NOEL (F, Clinical chemistry_Direct bilirubin): 50 mg/kg-day
- LOEL (F, Clinical chemistry_Free thyroxine): 12.5 mg/kg-day
- NOEL (F, Clinical chemistry_Globulin): 50 mg/kg-day
- NOEL (F, Clinical chemistry_Sorbitol dehydrogenase): 50 mg/kg-day
- NOEL (F, Clinical chemistry_Testosterone): 50 mg/kg-day
- NOEL (F, Clinical chemistry_Thyroid stimulating hormone): 50 mg/kg-day
- NOEL (F, Clinical chemistry_Total bile acids): 50 mg/kg-day
- NOEL (F, Clinical chemistry_Total bilirubin): 50 mg/kg-day
- NOEL (F, Clinical chemistry_Total protein): 50 mg/kg-day
- LOEL (F, Clinical chemistry_Total thyroxine): 6.25 mg/kg-day
- NOEL (F, Clinical chemistry_Total triiodothyronine): 50 mg/kg-day
- NOEL (F, Clinical chemistry_Triglycerides): 50 mg/kg-day
- NOEL (F, Gene expression_Acox1): 50 mg/kg-day
- LOEL (F, Gene expression_Cyp2b1): 3.12 mg/kg-day
- LOEL (F, Gene expression_Cyp2b2): 3.12 mg/kg-day
- NOEL (F, Gene expression_Cyp4a1): 50 mg/kg-day
- NOEL (F, Hematology_Erythrocytes): 50 mg/kg-day
- NOEL (F, Hematology_Hematocrit): 50 mg/kg-day
- NOEL (F, Hematology_Hemoglobin): 50 mg/kg-day
- NOEL (F, Hematology_Leukocytes): 50 mg/kg-day
- NOEL (F, Hematology_Reticulocytes): 50 mg/kg-day
- NOEL (F, Hematology_S. neutrophils): 50 mg/kg-day
- NOEL (F, Nonneoplastic effects_Bone marrow - Hypocellularity): 50 mg/kg-day
- NOEL (F, Nonneoplastic effects_Kidney - Papilla, necrosis): 50 mg/kg-day
- NOEL (F, Nonneoplastic effects_Liver - Hepatocyte, cytoplasmic alteration): 50 mg/kg-day
- NOEL (F, Nonneoplastic effects_Liver - Hepatocyte, hypertrophy): 50 mg/kg-day
- NOEL (F, Nonneoplastic effects_Liver - Hepatocyte, vacuolization cytoplasmic): 50 mg/kg-day
- NOEL (F, Nonneoplastic effects_Liver - Necrosis): 50 mg/kg-day
- LOEL (F, Nonneoplastic effects_Nose - Olfactory epithelium, degeneration): 50 mg/kg-day
- LOEL (F, Nonneoplastic effects_Nose - Olfactory epithelium, hyperplasia): 50 mg/kg-day
- NOEL (F, Nonneoplastic effects_Nose - Olfactory epithelium, necrosis): 50 mg/kg-day
- NOEL (F, Nonneoplastic effects_Spleen - Extramedullary hematopoiesis, decreased): 50 mg/kg-day
- NOEL (F, Nonneoplastic effects_Stomach, forestomach - Epithelium, hyperplasia): 50 mg/kg-day
- NOEL (F, Nonneoplastic effects_Thymus - Atrophy): 50 mg/kg-day
- NOEL (F, Organ weights_Heart - Absolute): 50 mg/kg-day
- NOEL (F, Organ weights_Heart - Relative): 50 mg/kg-day
- LOEL (F, Organ weights_Liver - Absolute): 3.12 mg/kg-day
- LOEL (F, Organ weights_Liver - Relative): 3.12 mg/kg-day
- NOEL (F, Organ weights_Lung - Absolute): 50 mg/kg-day
- NOEL (F, Organ weights_Lung - Relative): 50 mg/kg-day
- LOEL (F, Organ weights_R. adrenal gland - Absolute): 12.5 mg/kg-day
- LOEL (F, Organ weights_R. adrenal gland - Relative): 50 mg/kg-day
- NOEL (F, Organ weights_R. kidney - Absolute): 50 mg/kg-day
- NOEL (F, Organ weights_R. kidney - Relative): 50 mg/kg-day
- NOEL (F, Organ weights_Spleen - Absolute): 50 mg/kg-day
- NOEL (F, Organ weights_Spleen - Relative): 50 mg/kg-day
- NOEL (F, Organ weights_Thymus - Absolute): 50 mg/kg-day
- NOEL (F, Organ weights_Thymus - Relative): 50 mg/kg-day
- NOEL (F, Reproductive toxicity_Altered estrous cyclicity): 50 mg/kg-day
- NOEL (F, Survival rates): 50 mg/kg-day
- NOEL (F, body weight): 50 mg/kg-day
- NOEL (M, Clinical chemistry_Alanine aminotransferase): 10 mg/kg-day
- NOEL (M, Clinical chemistry_Albumin): 10 mg/kg-day
- LOEL (M, Clinical chemistry_Albumin/globulin ratio): 10 mg/kg-day
- NOEL (M, Clinical chemistry_Alkaline phosphatase): 10 mg/kg-day
- NOEL (M, Clinical chemistry_Aspartate aminotransferase): 10 mg/kg-day
- LOEL (M, Clinical chemistry_Cholesterol): 1.25 mg/kg-day
- NOEL (M, Clinical chemistry_Direct bilirubin): 10 mg/kg-day
- LOEL (M, Clinical chemistry_Free thyroxine): 0.625 mg/kg-day
- LOEL (M, Clinical chemistry_Globulin): 10 mg/kg-day
- NOEL (M, Clinical chemistry_Sorbitol dehydrogenase): 10 mg/kg-day
- NOEL (M, Clinical chemistry_Testosterone): 10 mg/kg-day
- NOEL (M, Clinical chemistry_Thyroid stimulating hormone): 10 mg/kg-day
- NOEL (M, Clinical chemistry_Total bile acids): 10 mg/kg-day
- NOEL (M, Clinical chemistry_Total bilirubin): 10 mg/kg-day
- NOEL (M, Clinical chemistry_Total protein): 10 mg/kg-day
- LOEL (M, Clinical chemistry_Total thyroxine): 0.625 mg/kg-day
- LOEL (M, Clinical chemistry_Total triiodothyronine): 0.625 mg/kg-day
- LOEL (M, Clinical chemistry_Triglycerides): 2.5 mg/kg-day
- LOEL (M, Gene expression_Acox1): 5 mg/kg-day
- LOEL (M, Gene expression_Acyl-CoA oxidase): 5 mg/kg-day
- LOEL (M, Gene expression_Cyp2b1): 1.25 mg/kg-day
- LOEL (M, Gene expression_Cyp2b2): 0.625 mg/kg-day
- LOEL (M, Gene expression_Cyp4a1): 1.25 mg/kg-day
- NOEL (M, Hematology_Erythrocytes): 10 mg/kg-day
- NOEL (M, Hematology_Hematocrit): 10 mg/kg-day
- NOEL (M, Hematology_Hemoglobin): 10 mg/kg-day
- NOEL (M, Hematology_Leukocytes): 10 mg/kg-day
- LOEL (M, Hematology_Reticulocytes): 1.25 mg/kg-day
- NOEL (M, Hematology_S. neutrophils): 10 mg/kg-day
- NOEL (M, Nonneoplastic effects_Bone marrow - Hypocellularity): 10 mg/kg-day
- NOEL (M, Nonneoplastic effects_Kidney - Papilla, necrosis): 10 mg/kg-day
- NOEL (M, Nonneoplastic effects_Liver - Hepatocyte, cytoplasmic alteration): 10 mg/kg-day
- LOEL (M, Nonneoplastic effects_Liver - Hepatocyte, hypertrophy): 2.5 mg/kg-day
- NOEL (M, Nonneoplastic effects_Liver - Hepatocyte, vacuolization cytoplasmic): 10 mg/kg-day
- NOEL (M, Nonneoplastic effects_Liver - Necrosis): 10 mg/kg-day
- NOEL (M, Nonneoplastic effects_Nose - Olfactory epithelium, degeneration): 10 mg/kg-day
- NOEL (M, Nonneoplastic effects_Nose - Olfactory epithelium, hyperplasia): 10 mg/kg-day
- NOEL (M, Nonneoplastic effects_Nose - Olfactory epithelium, inflammation, suppurative): 10 mg/kg-day
- NOEL (M, Nonneoplastic effects_Nose - Olfactory epithelium, necrosis): 10 mg/kg-day
- NOEL (M, Nonneoplastic effects_Spleen - Extramedullary hematopoiesis, decreased): 10 mg/kg-day
- NOEL (M, Nonneoplastic effects_Stomach, forestomach - Epithelium, hyperplasia): 10 mg/kg-day
- NOEL (M, Nonneoplastic effects_Thymus - Atrophy): 10 mg/kg-day
- NOEL (M, Organ weights_Heart - Absolute): 10 mg/kg-day
- NOEL (M, Organ weights_Heart - Relative): 10 mg/kg-day
- LOEL (M, Organ weights_Liver - Absolute): 1.25 mg/kg-day
- LOEL (M, Organ weights_Liver - Relative): 1.25 mg/kg-day
- NOEL (M, Organ weights_Lung - Absolute): 10 mg/kg-day
- NOEL (M, Organ weights_Lung - Relative): 10 mg/kg-day
- LOEL (M, Organ weights_R. adrenal gland - Absolute): 5 mg/kg-day
- LOEL (M, Organ weights_R. adrenal gland - Relative): 2.5 mg/kg-day
- NOEL (M, Organ weights_R. kidney - Absolute): 10 mg/kg-day
- LOEL (M, Organ weights_R. kidney - Relative): 10 mg/kg-day
- NOEL (M, Organ weights_Spleen - Absolute): 10 mg/kg-day
- NOEL (M, Organ weights_Spleen - Relative): 10 mg/kg-day
- NOEL (M, Organ weights_Thymus - Absolute): 10 mg/kg-day
- NOEL (M, Organ weights_Thymus - Relative): 10 mg/kg-day
- NOEL (M, Reproductive toxicity_Altered sperm parameters): 10 mg/kg-day
- NOEL (M, Survival rates): 10 mg/kg-day
- NOEL (M, body weight): 10 mg/kg-day
